Reference: patent US12622887B2 (priority 2019, dated 2026)

Legend:
αKlotho = assay: Release of soluble αKlotho in supernatant of primary tubule cell cultures (RPTEC), ELISA; type: cell-based; settings: for Average Klotho value: RPTEC supernatant
Experimental: Concentrations of H2O2 equal to 0.1, 0.2, 0.5 up to 1 mM were also tested. […] The soluble aKlotho analysis was performed using the commercial test ELISA lbl code 277789 following the manufacturer's instructions. […] The soluble aKlotho analysis was performed using ELISA lbl test.

[1] = system: primary renal tubule cells; assay: MTT test, cell proliferation/viability of primary renal tubule cells; type: cell-based; settings: tubule cells exposed to H2O2 0.5 mM alone

CC(=O)N(CC(O)CN(C(C)=O)c1c(I)c(C(=O)NCC(O)CO)c(I)c(C(=O)NCC(O)CO)c1I)c1c(I)c(C(=O)NCC(O)CO)c(I)c(C(=O)NCC(O)CO)c1I (centres unmarked) [Iodixanol]
Change in Klotho compared to the basal condition (αKlotho; Iodixanol contrast medium only, 6 hours): drastic reduction in Klotho
Average Klotho value (αKlotho; Iodixanol 100 mg/ml 6 h alone): 0 pg/mL

OO [H2O2]
Lowest concentration able to induce a statistically significant reduction in Klotho (αKlotho; 6 hours exposure of primary tubule cells): 0.1 mM
Average Klotho value (αKlotho; H2O2 6 h alone (0.1 mM), no pretreatment): 55.42 pg/mL
Cell viability (MTT test) [1]: significant reduction in cell viability

C[N+](C)(C)C[C@H](O)CC(=O)[O-] [Carnitine, L-Carnitine]
Average Klotho value (αKlotho; pre-treatment 12 h at 5 mM, then 6 h Gentamicin sulphate 10 mM): 6.68 pg/mL
Average Klotho value (αKlotho; pre-treatment 12 h at 5 mM, then 6 h Iodixanol 100 mg/ml): 77.06 pg/mL
Average Klotho value (αKlotho; pretreatment 12 h at 5 mM, then 6 h H2O2 0.1 mM): 140.25 pg/mL
